According to ChEMBL document CHEMBL1138933 (J Med Chem, 2006):
The source made the active and inactive calls. The calls are words filed in the database; no cut-off is given here.

Tests used:
[1] = target: Sodium-dependent serotonin transporter (Homo sapiens, UniProt P31645); type: cell-based, JAR
Description: Inhibition of [3H]5-HT uptake at human 5-HT transporter expressed in Jar cells

[2] = target: T1, 5-hydroxytryptamine receptor 1A (Homo sapiens) (UniProt P08908); assay: Agonist activity at human 5HT1A receptor expressed in CHO cells by inhibition of […] forskolin-stimulated cAMP production relative to 5-HT; type: functional, cell-based
T1 sequence (whole entry): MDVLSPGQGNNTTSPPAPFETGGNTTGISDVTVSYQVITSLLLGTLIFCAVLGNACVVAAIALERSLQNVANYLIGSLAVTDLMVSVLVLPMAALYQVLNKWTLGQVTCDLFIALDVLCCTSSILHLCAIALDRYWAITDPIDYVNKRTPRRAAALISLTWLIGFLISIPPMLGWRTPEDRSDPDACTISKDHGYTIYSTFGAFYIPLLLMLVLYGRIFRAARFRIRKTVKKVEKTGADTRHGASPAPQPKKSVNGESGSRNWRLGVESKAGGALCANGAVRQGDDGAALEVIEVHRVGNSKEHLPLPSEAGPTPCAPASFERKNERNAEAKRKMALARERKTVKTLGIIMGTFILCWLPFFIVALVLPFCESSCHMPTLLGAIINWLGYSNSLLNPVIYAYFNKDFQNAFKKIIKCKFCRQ

[3] = target: Adrenergic receptor alpha-1 (Rattus norvegicus) (UniProt P15823+P23944+P43140); assay: Displacement of [3H]prazosin from alpha-1 adrenergic receptor in Sprague-Dawley rat cortical membranes at 1 uM; type: cell membranes; details: Membrane
[4] = target: Sodium-dependent serotonin transporter (Rattus norvegicus, UniProt P31652)
Description: Displacement of [3H]paroxetine from 5-HT transporter in Sprague-Dawley rat cortical membranes

[5] = target: T2, 5-hydroxytryptamine receptor 1A (Homo sapiens, UniProt P08908); assay: biochemical
T2 sequence (P08908 whole entry): T1 sequence (whole entry)
Description: Displacement of [3H]-8-OH-DPAT from human 5HT1A receptor expressed in CHO cells

[6] = target: T3, Adrenergic receptor alpha-1 (Rattus norvegicus, UniProt P15823+P23944+P43140); assay: Displacement of [3H]prazosin from alpha-1 adrenergic receptor in Sprague-Dawley rat cortical membranes; type: cell membranes, Membrane
T3 sequence (P15823 whole entry): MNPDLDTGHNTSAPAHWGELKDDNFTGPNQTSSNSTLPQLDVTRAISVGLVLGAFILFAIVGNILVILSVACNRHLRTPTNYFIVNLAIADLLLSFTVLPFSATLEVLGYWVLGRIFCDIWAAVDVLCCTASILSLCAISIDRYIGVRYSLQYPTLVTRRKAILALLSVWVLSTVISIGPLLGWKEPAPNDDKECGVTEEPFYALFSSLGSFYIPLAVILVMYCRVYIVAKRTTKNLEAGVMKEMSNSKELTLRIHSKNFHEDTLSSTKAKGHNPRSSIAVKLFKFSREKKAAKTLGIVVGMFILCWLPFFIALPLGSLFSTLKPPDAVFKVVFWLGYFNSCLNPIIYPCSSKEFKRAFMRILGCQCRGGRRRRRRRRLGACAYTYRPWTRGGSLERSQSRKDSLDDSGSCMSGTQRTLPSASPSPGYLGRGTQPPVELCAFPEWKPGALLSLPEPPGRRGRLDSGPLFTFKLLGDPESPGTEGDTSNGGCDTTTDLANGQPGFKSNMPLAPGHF
T3 sequence (P23944 whole entry): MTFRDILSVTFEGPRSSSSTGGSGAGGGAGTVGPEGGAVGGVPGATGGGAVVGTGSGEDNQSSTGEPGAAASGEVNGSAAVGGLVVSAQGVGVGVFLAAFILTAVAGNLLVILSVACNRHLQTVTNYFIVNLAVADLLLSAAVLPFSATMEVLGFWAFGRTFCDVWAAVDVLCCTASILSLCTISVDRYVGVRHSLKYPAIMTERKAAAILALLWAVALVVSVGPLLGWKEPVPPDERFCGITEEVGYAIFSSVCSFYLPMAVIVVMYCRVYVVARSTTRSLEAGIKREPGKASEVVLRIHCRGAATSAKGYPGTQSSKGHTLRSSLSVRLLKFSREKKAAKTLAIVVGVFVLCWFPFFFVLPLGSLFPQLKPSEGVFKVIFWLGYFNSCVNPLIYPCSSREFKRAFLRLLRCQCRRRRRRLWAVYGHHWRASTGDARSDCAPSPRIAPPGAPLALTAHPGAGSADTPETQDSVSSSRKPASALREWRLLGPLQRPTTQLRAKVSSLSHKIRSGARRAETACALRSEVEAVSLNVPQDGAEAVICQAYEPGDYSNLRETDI
T3 sequence (P43140 whole entry): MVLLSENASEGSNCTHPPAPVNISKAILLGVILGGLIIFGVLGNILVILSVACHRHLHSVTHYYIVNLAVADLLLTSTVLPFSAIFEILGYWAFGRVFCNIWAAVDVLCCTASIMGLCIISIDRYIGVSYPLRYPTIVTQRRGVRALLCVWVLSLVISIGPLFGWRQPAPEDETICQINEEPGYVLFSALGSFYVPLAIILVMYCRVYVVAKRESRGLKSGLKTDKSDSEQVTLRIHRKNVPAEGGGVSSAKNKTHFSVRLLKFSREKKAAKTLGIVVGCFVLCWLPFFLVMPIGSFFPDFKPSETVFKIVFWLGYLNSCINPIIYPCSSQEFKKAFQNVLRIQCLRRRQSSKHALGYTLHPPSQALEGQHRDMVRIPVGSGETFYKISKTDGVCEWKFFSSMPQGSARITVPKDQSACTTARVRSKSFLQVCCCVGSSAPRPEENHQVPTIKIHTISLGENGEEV

[7] = target: T2, 5-hydroxytryptamine receptor 1A
Rattus norvegicus = assay: Increase of 5-HT levels in Sprague-Dawley rat frontal cortex at 30 mg/kg, po relative to control by microdialysis assay; type: functional, organism-based; parameters: dose 30 mg/kg

Sequence of Sodium-dependent serotonin transporter (Homo sapiens, UniProt P31645) (P31645 whole entry): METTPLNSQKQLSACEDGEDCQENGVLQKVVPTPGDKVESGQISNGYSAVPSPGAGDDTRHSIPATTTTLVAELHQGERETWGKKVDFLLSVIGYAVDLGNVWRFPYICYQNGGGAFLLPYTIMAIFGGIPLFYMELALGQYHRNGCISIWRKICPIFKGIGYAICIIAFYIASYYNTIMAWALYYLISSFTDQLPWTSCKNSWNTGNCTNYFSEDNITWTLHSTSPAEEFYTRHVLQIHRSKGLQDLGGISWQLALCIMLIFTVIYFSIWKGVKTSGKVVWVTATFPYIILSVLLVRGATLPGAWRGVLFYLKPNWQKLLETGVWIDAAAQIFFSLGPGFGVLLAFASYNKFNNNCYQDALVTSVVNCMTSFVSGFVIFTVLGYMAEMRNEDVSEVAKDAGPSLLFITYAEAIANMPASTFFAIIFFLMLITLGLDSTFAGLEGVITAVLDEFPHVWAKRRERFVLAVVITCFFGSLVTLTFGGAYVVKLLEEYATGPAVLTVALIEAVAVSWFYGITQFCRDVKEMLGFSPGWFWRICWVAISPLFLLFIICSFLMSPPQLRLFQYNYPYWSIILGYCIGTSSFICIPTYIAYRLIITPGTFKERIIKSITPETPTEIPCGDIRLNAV
Sequence of Sodium-dependent serotonin transporter (Rattus norvegicus, UniProt P31652) (P31652 whole entry): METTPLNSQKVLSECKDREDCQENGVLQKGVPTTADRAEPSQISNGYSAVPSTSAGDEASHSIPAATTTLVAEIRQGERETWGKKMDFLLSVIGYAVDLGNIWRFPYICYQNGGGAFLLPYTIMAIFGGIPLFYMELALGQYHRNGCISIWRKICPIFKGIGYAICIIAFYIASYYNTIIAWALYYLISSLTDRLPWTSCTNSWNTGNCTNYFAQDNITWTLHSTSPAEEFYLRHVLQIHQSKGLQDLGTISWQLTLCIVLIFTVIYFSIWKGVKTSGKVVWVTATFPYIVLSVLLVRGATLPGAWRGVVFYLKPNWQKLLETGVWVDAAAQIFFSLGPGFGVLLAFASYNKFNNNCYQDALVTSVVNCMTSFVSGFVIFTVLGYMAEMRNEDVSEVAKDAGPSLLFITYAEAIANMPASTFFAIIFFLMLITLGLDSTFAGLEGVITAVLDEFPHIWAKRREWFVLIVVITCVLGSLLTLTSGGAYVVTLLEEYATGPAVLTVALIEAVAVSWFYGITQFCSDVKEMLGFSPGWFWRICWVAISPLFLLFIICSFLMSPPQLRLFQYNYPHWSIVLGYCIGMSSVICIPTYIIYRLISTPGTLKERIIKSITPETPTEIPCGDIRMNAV

Row | SMILES | IC50 [1] [µM] | Emax [2] [%] | inhibition [3] [%] | Ki [4] [µM] | Ki [5] [µM] | Ki [6] [µM] | IC50 [7] [µM] | Activity (Rattus norvegicus)
1 | COc1cccc2c1CC(N(CCCc1c[nH]c3ccc(F)cc13)CC1CC1)CO2 (racemic) | 0.0426 | 91 | 44 |  |  |  |  | 
2 | CCCN(CCCc1c[nH]c2ccc(F)cc12)C1COc2c(F)ccc(C(N)=O)c2C1 (racemic) | 0.128 | 84 |  | 0.0071 | 0.0035 |  |  | 
3 | NC(=O)c1ccc(F)c2c1C[C@@H](NCCCc1c[nH]c3ccc(F)cc13)CO2 | 0.197 | 85 | 21 | 0.0204 | 0.0452 |  |  | 
4 | NC(=O)c1ccc(F)c2c1CC(N(CCCCc1c[nH]c3ccc(F)cc13)CC1CC1)CO2 (racemic) | 0.0824 |  |  | 0.0033 | 0.0021 | 0.506 |  | 
5 | CCN(CCCc1c[nH]c2ccc(F)cc12)[C@H]1COc2c(F)ccc(C(N)=O)c2C1 | 0.0427 |  |  | 0.0034 | 0.0349 | 0.64 | 0.135 | 
6 | CCN(CCCc1c[nH]c2ccc(F)cc12)[C@@H]1COc2c(F)ccc(C(N)=O)c2C1 | 0.0373 | 91 |  | 0.0036 | 0.0186 | 0.545 |  | 
7 | NC(=O)c1ccc(F)c2c1C[C@@H](N(CCCc1c[nH]c3ccc(F)cc13)CC1CC1)CO2 | 0.0597 |  |  | 0.0039 |  | 2.023 |  | 
8 | NC(=O)c1ccc(F)c2c1C[C@H](N(CCCc1c[nH]c3ccc(F)cc13)CC1CC1)CO2 | 0.0363 | 69 | 26 | 0.0042 |  |  |  | 
9 | CCCN(CCCc1c[nH]c2ccc(F)cc12)C1COc2cccc(OC)c2C1 (racemic) | 0.386 | 80 |  |  |  | 0.82 |  | 
10 | NC(=O)c1ccc(F)c2c1CC(N(CCCc1c[nH]c3ccc(F)cc13)CC1CC1)CO2 (racemic) | 0.0535 |  | 32 | 0.0035 |  |  |  | 
11 | COc1cccc2c1CC(N(CCCc1c[nH]c3ccc(F)cc13)C1CCC1)CO2 (racemic) | 0.4 | 37 | 15 |  |  |  |  | 
12 | CCCN(CCCc1c[nH]c2ccc(F)cc12)[C@H]1COc2c(F)ccc(C(N)=O)c2C1 | 0.181 | 78 |  | 0.008 | 0.0015 | 1.15 |  | 
13 | NC(=O)c1ccc(F)c2c1CC(N(CCCc1c[nH]c3ccc(F)cc13)C1CCC1)CO2 (racemic) | 0.0252 |  | 16 | 0.003 |  |  |  | 
14 | CCN(CCCc1c[nH]c2ccc(F)cc12)C1COc2cccc(OC)c2C1 (racemic) | 0.064 | 96 |  |  | 0.0023 | 0.207 |  | 
15 | CCCN(CCCCc1c[nH]c2ccc(F)cc12)C1COc2c(F)ccc(C(N)=O)c2C1 (racemic) | 0.217 |  |  | 0.0122 | 0.0044 | 0.494 |  | 
16 | NC(=O)c1ccc(F)c2c1CC(N(CCc1c[nH]c3ccc(F)cc13)CC1CC1)CO2 (racemic) | > 1 |  |  | 0.0978 | 0.0073 | 0.636 |  | 
17 | NC(=O)c1ccc(F)c2c1C[C@@H](N(CCCc1c[nH]c3ccc(F)cc13)C1CCC1)CO2 | 0.0187 |  | 21 | 0.0015 |  |  |  | Active
18 | COc1cccc2c1CC(N(C)CCCc1c[nH]c3ccc(F)cc13)CO2 (racemic) | 0.015 | 91 |  |  |  | 0.61 |  | 
19 | COc1cccc2c1C[C@@H](N(CCCc1c[nH]c3ccc(F)cc13)C1CCC1)CO2 | 0.732 |  | 15 |  |  |  | 0.023 | 
20 | CCN(CCCCc1c[nH]c2ccc(F)cc12)C1COc2c(F)ccc(C(N)=O)c2C1 (racemic) | 0.0241 |  |  | 0.0004 | 0.33 | 0.328 | > 1 | 
21 | NC(=O)c1ccc(F)c2c1CC(N(CCCCc1c[nH]c3ccc(F)cc13)C1CCC1)CO2 (racemic) | 0.3 |  |  | 0.0104 |  | 0.645 | 0.024 | 
22 | CN(CCCc1c[nH]c2ccc(F)cc12)[C@H]1COc2c(F)ccc(C(N)=O)c2C1 | 0.116 |  | 37 | 0.0148 | 0.266 |  |  | 
23 | NC(=O)c1ccc(F)c2c1C[C@H](N(CCCc1c[nH]c3ccc(F)cc13)C1CCC1)CO2 | 0.0174 |  |  | 0.0053 |  |  |  | 
24 | CCCN(CCCc1c[nH]c2ccc(F)cc12)[C@@H]1COc2c(F)ccc(C(N)=O)c2C1 | 0.0599 | 97 | 46 | 0.0047 | 0.0032 |  |  | 
25 | CCCN(CCc1c[nH]c2ccc(F)cc12)C1COc2c(F)ccc(C(N)=O)c2C1 (racemic) | > 1 |  |  | 0.088 | 0.0176 | 0.484 |  | 
26 | CCN(CCc1c[nH]c2ccc(F)cc12)C1COc2c(F)ccc(C(N)=O)c2C1 (racemic) | 0.883 |  |  | 0.0602 | 0.0332 | 0.416 |  | 
